Assay results taken from patent publication EP0912571B1, “NAPHTHYRIDINES WHICH AFFECT IL-4 AND G-CSF” (SCHERING CORPORATION, priority 1996, dated 1997).

Columns and labels:
BALB/cJ mice = experiment: In vivo acceleration of recovery from neutropenia in cyclophosphamide-treated mice (flow cytometry of granulocytes); conditions: for granulocyte recovery: return to normal numbers: 40 mg/kg daily from day 1 after single sublethal dose of CY on day 0
Method: To test the activity of compound AA in enhancing peripheral neutrophil numbers and accelerating recovery of the neutrophil compartment, BALB/cJ mice were rendered neutropenic by treatment with a single sublethal dose of CY on day 0. Mice were then treated daily, starting on day 1, with 40 mg/kg compound AA or vehicle (carboxymethyl cellulose CMC) and sacrificed on days 3, 5, 6, 8 or 10 and granulocyte populations in peripheral blood and spleen analyzed by flow cytometry. Granulocytes were detected using the RB6-8C5 antibody, specific for granulocytes (see Hestdal et al 1991 J. Immunol. 147:22. which is hereby incorporated by reference) and the Mac-1 antibody, specific for myeloid cells (see Springer et al JEur. J. lmmunol. 9: 301). […] Compound AA administration accelerated granulocyte recovery in both blood and spleen, with a return to normal numbers by day 5 in blood and day 4 in spleen. These granulocytes were confirmed to be exclusively segmented neutrophils by cytological examination. Neutrophil recovery was delayed by 1-2 days in CY-dosed mice given vehicle, compared to compound AA - treated animals. No changes in percentage or number of monocytes were observed.

G-CSF mRNA = experiment: Steady-state G-CSF mRNA levels in stimulated cell cultures (reverse transcription, PCR); format: cell-based, human
[1] = system: TNFα, TNFβ, IL-1α, IL-1 β, IL-3, IL-6, IL-8, or GM-CSF; experiment: Specificity: production of other cytokines in the PBMNC culture (ELISA); format: cell-based, human; conditions: PHA-stimulated PBMNC's
Method: (§1) In order to determine the effect of compound AA on human G-CSF production, human peripheral blood mononuclear cells (PBMNC's) were prepared (as described in Ficoll-Paque: For in vitro isolation of lymphocytes (booklet) 1983 Pharmacia, Uppsala Sweden; which is hereby incorporated by reference) and cultured as described (in Oster et al, 1989 Blood 73:64. which is hereby incorporated by reference) with 5µg/ml phytohemagglutin (PHA) in the presence of varying concentrations of compound AA or vehicle (0.1% dimethylsulfoxide, DMSO). After 40 hours, culture supernatant was collected and cytokine levels measured by ELISA (R&D Systems, Minneapolis MN). Alternatively mRNA was prepared by standard protocols from these cells after 24 hour incubation, reverse-transcribed and subjected to polymerase chain reaction (PCR)
This effect was specific for G-CSF, since no change in the production of TNFα, TNFβ, IL-1α, IL-1 β, IL-3, IL-6, IL-8, or GM-CSF was observed.

human G-CSF production = experiment: In vitro enhancement of G-CSF production in PHA-stimulated PBMNC's (ELISA of culture supernatant); format: cell-based; conditions: PBMNC's with 5µg/ml PHA
Method: as §1

[2] = system: bone marrow steady-state G-CSF mRNA; experiment: Endogenous G-CSF in CY-dosed mice: bone marrow steady-state G-CSF mRNA by PCR; format: in vivo; conditions: CY-dosed mice administered compound AA
Method: Acceleration of neutrophil recovery by compound AA may occur by stimulating neutrophil development at the level of the bone marrow (see Demetri et al 1991 Blood 78: 2791).To confirm that compound AA was acting in vivo by enhancing endogenous G-CSF production, bone marrow steady-state G-CSF mRNA levels were determined by PCR.

[3] = system: mice made neutropenic with CY; experiment: Comparison of compound AA with rhG-CSF in the CY neutropenia model; format: in vivo; conditions: compound AA at 40mg/kg daily, granulocyte levels in peripheral blood on day 5
Method: Exogeneous G-CSF administration is now standard therapy for patients undergoing a neutropenic episode In order to compare compound AA treatment with G-CSF therapy in the CY model described above, we administered either compound AA or recombinant human G-CSF daily to mice made neutropenic with CY. Granulocyte levels in peripheral blood were determined on day 5.

[4] = 40 mg/kg daily, CY-treated mice

CC(=O)Nc1ccc(S(=O)(=O)Nc2nc(-c3ncccc3C)cc3cccnc23)cc1 [compound AA]
delay of neutrophil recovery in CY-dosed mice given vehicle, compared to compound AA-treated animals (BALB/cJ mice; 40 mg/kg daily): 1 to 2 days | changes in percentage or number of monocytes (BALB/cJ mice; [4]): No changes | gross toxicity or abnormalities (BALB/cJ mice; [4]): No evidence of gross toxicity or abnormalities | granulocyte recovery: return to normal numbers (BALB/cJ mice; blood): ≤ 5 days | granulocyte recovery: return to normal numbers (BALB/cJ mice; spleen): ≤ 4 days | Steady-state G-CSF mRNA levels (G-CSF mRNA; LPS-stimulated monocytes): increased | Steady-state G-CSF mRNA levels (G-CSF mRNA; PHA-stimulated PBMNC's): increased | change in the production of TNFα, TNFβ, IL-1α, IL-1 β, IL-3, IL-6, IL-8, or GM-CSF [1]: no change | EC50 (human G-CSF production; Homo sapiens, G-CSF levels, 40 hours, read-out: effective concentration50 (EC50)): 15 µM | increase in G-CSF levels (human G-CSF production; supernatant after 40 hours, ELISA): 4-5 fold | bone marrow G-CSF mRNA levels [2]: enhanced | ability to enhance peripheral blood neutrophil numbers versus 250mg/kg rhG-CSF [3]: comparable | ability to enhance peripheral blood neutrophil numbers versus 50-125mg/kg rhG-CSF [3]: greater
